In ChEMBL document CHEMBL1158314, “Antimycobacterial cycloartanes from Borrichia frutescens” (J Nat Prod, 1996):
Values after ≈ are worked out from the molar mass of the structure shown.

Key:
[1] = system: Mycobacterium tuberculosis; assay: Antimycobacterial activity against Mycobacterium tuberculosis H37Rv after 3 days by radiorespirometric assay; type: functional; details: 72 h
Vero = assay: Cytotoxicity against african green monkey Vero cells after 72 hrs; type: cell-based; details: Chlorocebus sabaeus

C[C@@H]1CC[C@H](C(C)(C)O)O[C@H]2C[C@@]3(C)[C@@H]4CC[C@H]5C(C)(C)C(=O)CC[C@@]56C[C@@]46CC[C@]3(C)[C@@H]12 [ARGENTATINE B]
MIC [1]: > 128 µg/mL

CC(C)=C[C@H](O)C[C@@H](C)[C@H]1CC[C@@]2(C)C3=C(CC[C@]12C)[C@@]1(C)CCC(=O)C(C)(C)[C@@H]1CC3
MIC [1]: 64 µg/mL (≈ 145 µM) | IC50 (Vero): 104 µg/mL (≈ 235 µM)

CC(=O)O[C@H]1CC[C@]23C[C@]24CC[C@]2(C)[C@@H]([C@H](C)CC[C@H]5OC5(C)C)CC[C@@]2(C)[C@@H]4CC[C@H]3C1(C)C
MIC [1]: > 128 µg/mL

CC(=O)O[C@H]1C[C@@]2(C)[C@@H](C[C@@H](O)[C@H]3[C@@]4(C)CC[C@@H](O)[C@@H](C)[C@@H]4CC[C@@]32C)/C1=C(\CCC=C(C)C)C(=O)O [FUSIDIC ACID]
MIC [1]: 4 µg/mL (≈ 7.74 µM) | IC50 (Vero): 106 µg/mL (≈ 205 µM)

CC(C)(O)[C@@H]1CC[C@](C)([C@H]2C(O)C[C@@]3(C)[C@@H]4CC[C@H]5C(C)(C)C(=O)CC[C@@]56C[C@@]46CC[C@]23C)O1 (stereo partly specified) [ARGENTATINE A]
MIC [1]: > 128 µg/mL

C[C@H](CC[C@H]1OC1(C)C)[C@H]1CC[C@@]2(C)[C@@H]3CC[C@H]4C(C)(C)C(=O)CC[C@@]45C[C@@]35CC[C@]12C
MIC [1]: 8 µg/mL (≈ 18.2 µM) | IC50 (Vero): 71.8 µg/mL (≈ 163 µM)

C[C@H](CC[C@H]1OC1(C)C)[C@H]1CC[C@@]2(C)[C@@H]3CC[C@H]4C(C)(C)[C@@H](O)CC[C@@]45C[C@@]35CC[C@]12C
MIC [1]: 8 µg/mL (≈ 18.1 µM) | IC50 (Vero): 39.8 µg/mL (≈ 89.9 µM)
